Reference: ChEMBL document CHEMBL1201862, “PubChem BioAssay data set” (2004)
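Compound exposure: 48 hours, 5 concentrations, 96-well plates. GI50: concentration for 50% inhibition of growth.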 Active and inactive are the calls of the source. Cut-off read from the data, not from the text of the source: active = GI50 up to about 1.1 µM and inactive = higher.

Tests used:
Test in all cases: inhibition of tumour cell growth, NCI panel, 48 h
SK-MEL-2 = tested on: SK-MEL-2
KM12 = tested on: KM12
RXF 393 = tested on: RXF 393
EKVX = tested on: EKVX
A498 = tested on: A498
SNB-19 = tested on: SNB-19
SR = tested on: SR
SF-295 = tested on: SF-295
NCI-H226 = tested on: NCI-H226
A549 = tested on: A549
K562 = tested on: K562
SNB-75 = tested on: SNB-75
HCT-116 = tested on: HCT-116
TK-10 = tested on: TK-10
ACHN = tested on: ACHN
NCI-H522 = tested on: NCI-H522
LOX IMVI = tested on: LOX IMVI
OVCAR-8 = tested on: OVCAR-8
SW-620 = tested on: SW-620

Measured: GI50

O=C(C[N+]1(c2ccccc2)CCOCC1)c1ccccc1
inactive: SK-MEL-2 > 100 µM | KM12 > 100 µM | RXF 393 > 100 µM | EKVX 96.6 µM | A498 > 100 µM | SNB-19 > 100 µM | SR 34.8 µM | SF-295 > 100 µM | NCI-H226 > 100 µM | A549 > 100 µM | K562 40.9 µM | SNB-75 > 100 µM | HCT-116 > 100 µM | TK-10 > 100 µM | ACHN > 100 µM | NCI-H522 45.7 µM | LOX IMVI > 100 µM | OVCAR-8 > 100 µM

Clc1ccc2c(c1)[nH]c1c2nc2sccn21
inactive: SK-MEL-2 > 100 µM | KM12 > 100 µM | RXF 393 > 100 µM | EKVX > 100 µM | A498 > 100 µM | SNB-19 > 100 µM | SR > 100 µM | SF-295 > 100 µM | NCI-H226 > 100 µM | A549 > 100 µM | K562 > 100 µM | SNB-75 28.6 µM | HCT-116 > 100 µM | TK-10 > 100 µM | SW-620 > 100 µM | ACHN > 100 µM | NCI-H522 > 100 µM | LOX IMVI > 100 µM | OVCAR-8 > 100 µM

COc1cc2c3c(c1OC)-c1c(ccc4c1OCO4)CC3(C#N)N(C(=O)c1ccccc1)CC2 (stereo not given)
inactive: KM12 > 100 µM | RXF 393 36.1 µM | EKVX 74.1 µM | A498 > 100 µM | SNB-19 61.5 µM | SR > 100 µM | SF-295 41.4 µM | NCI-H226 37.7 µM | A549 64.3 µM | K562 54.6 µM | SNB-75 21.2 µM | HCT-116 42.2 µM | TK-10 > 100 µM | SW-620 > 100 µM | NCI-H522 > 100 µM | LOX IMVI 43 µM | OVCAR-8 44.5 µM

C[P+]1(Cc2ccccc2)CCCC1
inactive: SK-MEL-2 > 100 µM | KM12 > 100 µM | RXF 393 > 100 µM | EKVX > 100 µM | A498 > 100 µM | SNB-19 > 100 µM | SR > 100 µM | SF-295 > 100 µM | NCI-H226 > 100 µM | A549 > 100 µM | K562 > 100 µM | SNB-75 > 100 µM | HCT-116 > 100 µM | TK-10 > 100 µM | SW-620 > 100 µM | ACHN > 100 µM | NCI-H522 > 100 µM | LOX IMVI > 100 µM | OVCAR-8 > 100 µM

O=C(/C=C/c1cccc([N+](=O)[O-])c1)c1ccc([N+](=O)[O-])cc1
inactive: SK-MEL-2 > 100 µM | KM12 > 100 µM | RXF 393 > 100 µM | EKVX > 100 µM | A498 > 100 µM | SNB-19 > 100 µM | SR > 100 µM | SF-295 > 100 µM | NCI-H226 > 100 µM | A549 > 100 µM | K562 > 100 µM | SNB-75 > 100 µM | HCT-116 > 100 µM | TK-10 > 100 µM | SW-620 > 100 µM | ACHN > 100 µM | NCI-H522 > 100 µM | LOX IMVI > 100 µM | OVCAR-8 > 100 µM

C1CCN(c2nsc(N3CCCCC3)n2)CC1
inactive: SK-MEL-2 > 100 µM | KM12 > 100 µM | RXF 393 > 100 µM | EKVX > 100 µM | A498 > 100 µM | SNB-19 > 100 µM | SR > 100 µM | SF-295 > 100 µM | NCI-H226 > 100 µM | A549 > 100 µM | K562 > 100 µM | SNB-75 > 100 µM | HCT-116 > 100 µM | TK-10 > 100 µM | SW-620 > 100 µM | ACHN > 100 µM | NCI-H522 > 100 µM | LOX IMVI > 100 µM | OVCAR-8 > 100 µM

NS(=O)(=O)c1ccc(NC(=O)COC(=O)c2cccc3c(=O)c4ccccc4[nH]c23)cc1
inactive: SK-MEL-2 19.5 µM | KM12 31.6 µM | RXF 393 17.5 µM | EKVX 38.2 µM | A498 17.9 µM | SNB-19 17 µM | SR 4.03 µM | SF-295 23.9 µM | NCI-H226 19.6 µM | A549 46.9 µM | K562 > 100 µM | SNB-75 14.4 µM | HCT-116 17.7 µM | TK-10 24.7 µM | SW-620 52.7 µM | ACHN 26.5 µM | NCI-H522 12.3 µM | LOX IMVI 13.6 µM | OVCAR-8 20.7 µM

Nc1nc(-c2ccccc2)cc(-c2cc(Cl)ccc2O)n1
inactive: KM12 50.9 µM | RXF 393 64.3 µM | EKVX 46.9 µM | A498 > 100 µM | SNB-19 53.8 µM | SR > 100 µM | SF-295 83.6 µM | NCI-H226 > 100 µM | A549 42.7 µM | K562 > 100 µM | SNB-75 28.7 µM | HCT-116 39.7 µM | TK-10 54.2 µM | SW-620 > 100 µM | ACHN 25.6 µM | NCI-H522 25.9 µM | LOX IMVI 54 µM | OVCAR-8 32.9 µM

Cc1ccc(S(=O)(=O)n2cc(/C=C/C#N)c(-c3cn(S(=O)(=O)c4ccc(C)cc4)cc3-c3cn(S(=O)(=O)c4ccc(C)cc4)cc3/C=C/C#N)c2)cc1
inactive: SK-MEL-2 > 100 µM | KM12 91.6 µM | EKVX > 100 µM | A498 > 100 µM | SNB-19 > 100 µM | SR > 100 µM | SF-295 44.8 µM | NCI-H226 > 100 µM | K562 57.4 µM | SNB-75 > 100 µM | HCT-116 > 100 µM | TK-10 40.4 µM | ACHN > 100 µM | NCI-H522 > 100 µM | LOX IMVI 93.8 µM | OVCAR-8 > 100 µM

O=C1C=CC(=O)N1Nc1ccc([N+](=O)[O-])cc1[N+](=O)[O-]
inactive: SK-MEL-2 > 100 µM | KM12 > 100 µM | EKVX > 100 µM | A498 62.1 µM | SNB-19 > 100 µM | SR > 38.5 µM | SF-295 > 100 µM | NCI-H226 97.1 µM | A549 > 100 µM | K562 > 42.4 µM | SNB-75 > 100 µM | HCT-116 > 100 µM | TK-10 > 100 µM | SW-620 > 67.3 µM | ACHN > 100 µM | NCI-H522 > 42.7 µM | LOX IMVI > 100 µM | OVCAR-8 > 100 µM

C[N+]1=c2c3cccc4cccc(c(=O)n2CC1)c43
inactive: SK-MEL-2 19.6 µM | KM12 18.3 µM | RXF 393 11.4 µM | EKVX 29.4 µM | A498 15.1 µM | SR 2.77 µM | SF-295 21.3 µM | NCI-H226 13.1 µM | A549 22.4 µM | K562 19 µM | SNB-75 21.8 µM | HCT-116 4.68 µM | TK-10 5.82 µM | SW-620 11 µM | ACHN 12.5 µM | NCI-H522 11.4 µM | LOX IMVI 5.81 µM | OVCAR-8 16.6 µM
